Laboratory results from paper PMC6562117, “The role of the tyrosine kinase Wzc (Sll0923) and the phosphatase Wzb (Slr0328) in the production of extracellular polymeric substances (EPS) by Synechocystis PCC 6803” (MicrobiologyOpen, 2019).

Experiments:
[1] = target: T1, Wzc (Sll0923); His6-Wzc (Synechocystis sp. PCC 6803, UniProt P72877); assay: ATP consumption by luciferase bioluminescence (ENLITEN); type: biochemical; settings: 25 mM Tris-HCl pH 7.0, 1 mM DTT, 5 mM MgCl2, 30 C, 45 min; heat-inactivated Wzc as control
T1 construct: gene epsB

[2] = target: T2, Wzb (Slr0328); His6-Wzb (Synechocystis sp. PCC 6803, UniProt Q55535); assay: continuous p-nitrophenol release at […] nm; type: biochemical; settings: 10 mM pNPP, 100 mM sodium citrate pH 6.5, 1 mM EDTA, 0.1% beta-mercaptoethanol, 30 C
T2 construct: one monomer in the asymmetric unit
T2 sequence (Q55535 whole entry): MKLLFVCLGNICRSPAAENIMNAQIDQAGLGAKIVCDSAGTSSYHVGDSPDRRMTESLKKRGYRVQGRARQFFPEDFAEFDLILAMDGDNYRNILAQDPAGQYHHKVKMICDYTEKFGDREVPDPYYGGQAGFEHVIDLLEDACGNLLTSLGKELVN

T1 sequence (P72877 entry or part of it): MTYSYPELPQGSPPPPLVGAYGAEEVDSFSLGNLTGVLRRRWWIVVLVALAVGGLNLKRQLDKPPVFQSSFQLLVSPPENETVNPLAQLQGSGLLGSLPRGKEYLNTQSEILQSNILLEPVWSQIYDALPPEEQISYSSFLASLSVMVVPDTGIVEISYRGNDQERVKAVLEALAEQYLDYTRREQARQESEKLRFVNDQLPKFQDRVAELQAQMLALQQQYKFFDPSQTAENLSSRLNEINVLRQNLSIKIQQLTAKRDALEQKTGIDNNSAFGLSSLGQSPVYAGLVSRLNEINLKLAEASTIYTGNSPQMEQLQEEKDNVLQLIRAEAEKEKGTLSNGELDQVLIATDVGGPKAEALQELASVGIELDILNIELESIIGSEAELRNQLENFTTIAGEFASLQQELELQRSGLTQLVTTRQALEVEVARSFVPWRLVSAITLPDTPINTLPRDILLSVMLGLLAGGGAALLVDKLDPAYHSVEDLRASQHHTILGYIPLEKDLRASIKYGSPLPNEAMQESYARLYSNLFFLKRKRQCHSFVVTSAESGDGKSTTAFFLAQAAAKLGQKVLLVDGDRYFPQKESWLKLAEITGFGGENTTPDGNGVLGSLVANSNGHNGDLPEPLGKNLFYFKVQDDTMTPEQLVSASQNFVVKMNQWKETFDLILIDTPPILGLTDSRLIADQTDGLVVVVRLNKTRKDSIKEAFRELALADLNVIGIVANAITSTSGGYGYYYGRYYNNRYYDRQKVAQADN

| Structure (SMILES) | ATP consumption by luciferase bioluminescence (ENLITEN) [1] | continuous p-nitrophenol release at 405 nm [2] |
| --- | --- | --- |
| Nc1ncnc2c1ncn2[C@@H]1O[C@H](COP(=O)(O)OP(=O)(O)OP(=O)(O)O)[C@@H](O)[C@H]1O [ATP] | Wzc is capable of ATP binding and hydrolysis | – |
| O=[N+]([O-])c1ccc(OP(=O)(O)O)cc1 [p-nitrophenyl phosphate] | – | we first used a p‐nitrophenyl phosphate hydrolysis assay to confirm that Wzb functions as a phosphatase |
